# Measurements reported in US12384764B2, “Pharmaceutical compounds” (Pfizer Inc., priority 2019, dated 2025).
# Key:
# [1] = Liver microsomal stability, rat; format: in vitro ADME; settings: pooled liver microsomes, pH 7.4; rat liver microsomes 0.5 mg/mL, 1 μM compound, NADPH, 37° C.; read-out: Liver Microsomal Stability t½, rat
# Description: (§1) Compounds were subjected to the following assays to investigate liver microsomal stability.
# (§2) Microsomal Incubation: Experimental Procedure
# (§3) Pooled liver microsomes were purchased from a reputable commercial supplier and stored at −80° C. prior to use. Microsomes (final protein concentration 0.5 mg/mL), 0.1 M phosphate buffer pH 7.4 and test compound (final substrate concentration 1 μM; final DMSO concentration 0.25%) were pre-incubated at 37° C. prior to the addition of NADPH (final concentration 1 mM) to initiate the reaction. The final incubation volume was 50 uL. A control incubation was included for each compound tested where 0.1 M phosphate buffer pH 7.4 was added instead of NADPH (minus NADPH). Two control compounds were included with each species. All incubations were performed singularly for each test compound. Each compound was incubated for 0, 5, 15, 30 and 45 min. The control (minus NADPH) was incubated for 45 min only. The reactions were stopped by transferring incubate into acetonitrile at the appropriate time points, in a 1:3 ratio. The termination plates are centrifuged at 3,000 rpm for 20 min at 4° C. to precipitate the protein. Following protein precipitation, the sample supernatants were combined in cassettes of up to 4 compounds, internal standard added, and samples analysed by LC-MS/MS. From a plot of ln peak area ratio (compound peak area/internal standard peak area) against time, the gradient of the line was determined. Subsequently, half-life (t1/2) and intrinsic clearance (CLint) were calculated.
# [2] = Liver microsomal stability, human; format: in vitro ADME; settings: pooled liver microsomes, pH 7.4; human liver microsomes 0.5 mg/mL, 1 μM compound, NADPH, 37° C.; read-out: Liver Microsomal Stability t½, human
# Description: as §1, §2, §3
# [3] = Cell cytotoxicity (CC50); format: cell-based; settings: human, Hep-G2 cells; mean of at least two experiments
# [4] = tested on: RSV A2; assay: RSV plaque reduction assay; format: cell-based; settings: human respiratory syncytial virus, HepG2, 48 h; Hep-G2 cells, RSV A2, 2 days incubation; mean of at least two experiments
# Description: Compounds were subjected to an RSV plaque reduction assay according to the following protocol.
# Hep-G2 cells (ECACC, 85011430) were passaged in flasks and seeded in 24-well plates in DMEM containing antibiotics and supplemented with 10% FBS. During inoculation and subsequent incubation, cells were cultured in DMEM containing 2% FBS. 100 plaque forming unit/well of RSV (RSV A2 ECACC, 0709161v) was mixed with eight serial dilutions of compound. Subsequently, 100 μL of the virus/compound mixtures was added to confluent Hep-G2 cell monolayers. The cells and virus/compound mixtures were incubated at 37° C. in a humidified 5% CO2 incubator for 2 h prior to removal of the inoculum and addition of 1 mL of overlay (DMEM containing FBS and 0.8% CMC) containing compound dilutions. The cells and were incubated at 37° C. in a humidified 5% CO2 incubator for 2 days.
# Cells were washed with PBS before adding 75/25% v/v EtOH/MeOH, for 3 min. Fixative was removed and plates were washed with PBS. A pre-titrated amount of the primary antibody was added in 200 μL PBS/2% milk powder, and plates incubated for 90 min at 37° C. The plates were washed 3 times with PBS/0.05% Tween20 before addition of rabbit anti-goat horse radish peroxidase in 200 μL PBS/2% milk powder, and incubated for 1 h at 37° C. Following three wash steps with PBS/0.05% Tween20, 200 μL ready-to-use TrueBlue was added and plates were incubated at rt for 10-15 min before washing with water. After removal of water, plates were air-dried in the dark.
# Plates were scanned and analysed using the Immunospot S6 Macro analyser, which is equipped with BioSpot analysis software for counting immunostained plaques (virospots). Plaque counts were used to calculate % infection relative to the mean of the plaque count in the virus control wells for RSV. The EC50 value was calculated as 50% reduction in signal, respectively, by interpolation of inhibition curves fitted with a 4-parameter nonlinear regression with a variable slope in Dotmatics. Plaque EC50 and cell toxicity CC50 values are a mean of at least two experiments and figures are rounded to whole units.
# [5] = Liver microsomal stability, dog; format: in vitro ADME; settings: pooled liver microsomes, pH 7.4; dog liver microsomes 0.5 mg/mL, 1 μM compound, NADPH, 37° C.; read-out: Liver Microsomal Stability t½, dog
# Description: as §1, §2, §3
# [6] = tested on: RSV; settings: Antimicrobial Agents and Chemotherapy, September 2007, 3346-3353; cited from earlier work
Structure (SMILES),half-life at 1 μM [1],half-life at 1 μM [2],CC50 at 2 days [3],EC50 [4],half-life at 1 μM [5],anti-RSV activity [6]
"CCn1ncc(C(=O)N[C@H]2N=C(c3ccccc3)c3ccccc3NC2=O)c1Oc1c(F)cc(C)cc1F [Example 1, 5-(2,6-Difluoro-4-methylphenoxy)-1-ethyl-N-[(3S)-2-oxo-5-phenyl-1,3-dihydro-1,4-benzodiazepin-3-yl]pyrazole-4-carboxamide]",5 min,36 min,> 25000 nM,91 nM,38.6 min,–
"Cc1ccc(Oc2c(C(=O)N[C@H]3N=C(c4ccccc4)c4ccccc4NC3=O)cnn2C2CCOCC2)c(F)c1 [Example 2, 5-(2-Fluoro-4-methylphenoxy)-1-(oxan-4-yl)-N-[(3S)-2-oxo-5-phenyl-1,3-dihydro-1,4-benzodiazepin-3-yl]pyrazole-4-carboxamide]",–,–,> 25000 nM,89 nM,–,–
"O=C(N[C@H]1N=C(c2ccccc2)c2cccc(F)c2NC1=O)c1cnn(C2COC2)c1Oc1ccc(Cl)cc1F [Example 3, 5-(4-Chloro-2-fluorophenoxy)-N-[(3S)-9-fluoro-2-oxo-5-phenyl-1,3-dihydro-1,4-benzodiazepin-3-yl]-1-(oxetan-3-yl)pyrazole-4-carboxamide]",38.3 min,24.5 min,> 25000 nM,71 nM,140 min,–
"O=C(N[C@H]1N=C(c2ccccc2)c2cccc(F)c2NC1=O)c1cnn(C2CCOCC2)c1Oc1ccc(Cl)cc1F [Example 4, 5-(4-Chloro-2-fluorophenoxy)-N-[(3S)-9-fluoro-2-oxo-5-phenyl-1,3-dihydro-1,4-benzodiazepin-3-yl]-1-(oxan-4-yl)pyrazole-4-carboxamide]",19.7 min,38.8 min,> 25000 nM,67 nM,117 min,–
"O=C(N[C@H]1N=C(c2ccccc2)c2cccc(F)c2NC1=O)c1cnn(C2COC2)c1Oc1c(F)cc(Cl)cc1F [Example 5, 5-(4-Chloro-2,6-difluorophenoxy)-N-[(3S)-9-fluoro-2-oxo-5-phenyl-1,3-dihydro-1,4-benzodiazepin-3-yl]-1-(oxetan-3-yl)pyrazole-4-carboxamide]",42.3 min,15.8 min,> 25000 nM,74 nM,174 min,–
"O=C(N[C@H]1N=C(c2ccccc2)c2cccc(F)c2NC1=O)c1cnn(C2CCOCC2)c1Oc1c(F)cc(Cl)cc1F [Example 6, 5-(4-Chloro-2,6-difluorophenoxy)-N-[(3S)-9-fluoro-2-oxo-5-phenyl-1,3-dihydro-1,4-benzodiazepin-3-yl]-1-(oxan-4-yl)pyrazole-4-carboxamide]",–,–,> 25000 nM,55 nM,–,–
O=C(Nc1ccccc1F)N[C@H]1N=C(c2ccccc2)c2ccccc2NC1=O [RSV604],–,–,–,–,–,sub-micromolar
